In ChEMBL document CHEMBL6078660, “Goondomycins A-H: Carbocyclic ansa-Polyketides from an Australian Pasture Streptomyces with Selective Activity against Dirofilaria immitis” (J Nat Prod, 2024):
Peptide text beside a SMILES is read from it. * marks the point of attachment. NHCH2CH2OH = OCCN*; For = O=C*

How the values were obtained:
Haemonchus contortus = assay: Anthelmintic activity against Haemonchus contortus L1 to L3 stage assessed as larvae development incubated for 4 days; type: functional, organism-based; details: 96 h
[1] = Cytotoxicity against human SW620 cells incubated for 24 hrs by MTT assay; type: toxicity, cell-based, SW-620
[2] = Cytotoxicity against human NCI-H460 cells incubated for 24 hrs by MTT assay; type: toxicity, cell-based
Escherichia coli = assay: Antibacterial activity against Escherichia coli ATCC 11775 assessed as inhibition of bacterial growth incubated for 24 hrs by spectrophotometer based analysis; type: functional, organism-based; details: ATCC 11775, 24 h
Candida albicans = assay: Antifungal activity against Candida albicans ATCC 10231 assessed as inhibition of fungal growth incubated for 48 hrs by spectrophotometer based analysis; type: functional, organism-based; details: ATCC 10231, 48 h
Staphylococcus aureus = assay: Antibacterial activity against Staphylococcus aureus ATCC 25923 assessed as inhibition of bacterial growth incubated for 24 hrs by spectrophotometer based analysis; type: functional, organism-based; details: ATCC 25923, 24 h
Dirofilaria immitis [3] = assay: Anthelmintic activity against Dirofilaria immitis microfilaria stage assessed as inhibition of motility incubated for approximately 72 hrs; type: functional, organism-based
Dirofilaria immitis [4] = assay: Anthelmintic activity against Dirofilaria immitis L4 stage assessed as inhibition of motility incubated for approximately 72 hrs; type: functional, organism-based

| Structure (SMILES) | EC50 (Haemonchus contortus) [µM] | IC50 at 24 h [1] [µM] | IC50 at 24 h [2] [µM] | IC50 (Escherichia coli) [µM] | IC50 (Candida albicans) [µM] | IC50 (Staphylococcus aureus) [µM] | EC50 (Dirofilaria immitis [3]) [µM] | EC50 (Dirofilaria immitis [4]) [µM] |
| --- | --- | --- | --- | --- | --- | --- | --- | --- |
| CC[C@H](C)[C@H]1O[C@]2(CC[C@@H]1C)C[C@@H]1C[C@@H](C/C=C(\C)[C@@H](O[C@H]3C[C@H](OC)[C@@H](O[C@H]4C[C@H](OC)[C@@H](O)[C@H](C)O4)[C@H](C)O3)[C@@H](C)/C=C/C=C3\CO[C@@H]4[C@H](O)C(C)=C[C@@H](C(=O)O1)[C@]34O)O2 | 0.001 |  |  |  |  |  |  |  |
| CC1=C2O[C@]3(O)C(N)=C2C(=C(O)C1=O)[C@@H]1O[C@@H](CC[C@H](C)/C=C(\C)C[C@@H](C)C[C@@H]3C)[C@H](C)[C@H](O)[C@@H]1C | 24 | > 30 | > 30 | > 30 | > 30 | ≥ 3.6 | 0.5 | 5 |
| CSC1=C2C3=C(C)C(=O)C(O)=C2[C@@H]2O[C@@H](CC[C@H](C)/C=C(\C)C[C@@H](C)C[C@H](C)[C@]1(O)O3)[C@H](C)[C@H](O)[C@@H]2C | 30 | 2.4 | 13.5 | > 30 | > 30 | ≥ 3.6 | 0.3 | 1.4 |
| C/C1=C\[C@@H](C)CC[C@@H]2O[C@@H](c3c(O)c(O)c(C)c4c3C(=O)[C@@](O)(O4)[C@@H](C)C[C@H](C)C1)[C@@H](C)[C@@H](O)[C@H]2C | 50 | > 30 | > 30 | > 30 | > 30 | ≥ 3.6 | 1.3 | 24 |
| CC1=c2oc3c(O)c2=C(C(=O)C1=O)[C@@H]1O[C@@H](CC[C@H](C)/C=C(\C)C[C@@H](C)C[C@@H]3C)[C@H](C)[C@H](O)[C@@H]1C | 43 | > 30 | > 30 | > 30 | > 30 | ≥ 3.6 | 0.2 | 1.8 |
| CC1=C2O[C@]3(O)C=C2C(=C(O)C1=O)[C@@H]1O[C@@H](CC[C@H](C)/C=C(\C)C[C@@H](C)C[C@@H]3C)[C@H](C)[C@H](O)[C@@H]1C | 49 | > 30 | > 30 | > 30 | > 30 | ≥ 3.6 | 4.1 | 18 |
| CC[C@]1([C@H]2O[C@H]([C@@H]3O[C@](O)(CO)[C@@H](C)C[C@H]3C)C[C@H]2C)CC[C@@H]([C@@]2(C)CC[C@@]3(C[C@@H](O)[C@H](C)[C@H]([C@H](C)[C@H](OC)[C@H](C)C(=O)O)O3)O2)O1 |  |  |  |  |  |  |  | 0.4 |
| CC1=C(O)C(=O)c2c3sc(c2C1=O)C(=O)[C@@H](C)C[C@H](C)C/C(C)=C/[C@@H](C)CC[C@@H](O)[C@H](C)[C@H](O)[C@@H]3C | 47 | > 30 | > 30 | > 30 | > 30 | ≥ 3.6 | 2.1 | 19 |
| CC1=C(O)C(=O)C2=C(C1=O)[C@H](S(=O)(=O)O)C(=O)[C@@H](C)C[C@H](C)C/C(C)=C/[C@@H](C)CC[C@@H]1O[C@@H]2[C@@H](C)[C@@H](O)[C@H]1C | 44 | > 30 | > 30 | > 30 | > 30 | ≥ 3.6 | 21 | 44 |
| CC(=O)N[C@@H](CSC1=C2C3=C(C)C(=O)C(O)=C2[C@@H]2O[C@@H](CC[C@H](C)/C=C(\C)C[C@@H](C)C[C@H](C)[C@]1(O)O3)[C@H](C)[C@H](O)[C@@H]2C)C(=O)O | 39 | > 30 | > 30 | > 30 | > 30 | ≥ 3.6 | 3.6 | 22 |
| CC(C)C[C@H](NC(=O)[C@H](C)NC(=O)CNC(=O)[C@@H](NC=O)C(C)C)C(=O)N[C@@H](C)C(=O)N[C@H](C(=O)N[C@H](C(=O)N[C@H](C(=O)N[C@@H](Cc1c[nH]c2ccccc12)C(=O)N[C@@H](CC(C)C)C(=O)N[C@@H](Cc1c[nH]c2ccccc12)C(=O)N[C@@H](CC(C)C)C(=O)N[C@@H](Cc1c[nH]c2ccccc12)C(=O)N[C@@H](CC(C)C)C(=O)N[C@@H](Cc1c[nH]c2ccccc12)C(=O)NCCO)C(C)C)C(C)C)C(C)C (For-VGALAVVVWLWLWLW-NHCH2CH2OH) |  |  |  |  |  |  | 0.1 |  |
